Reference: patent US20240400584A1, “COMPOUNDS AND METHODS FOR MODULATING SPLICING” (REMIX THERAPEUTICS INC., priority 2021, published 2024)

Experiments:
[1] = test system: HiBit-tagged MYB in K562 cells; assay: HiBiT protein abundance assay, MYB; assay type: cell-based, human; settings: HiBiT-modified K562 cells, 24 hours, luminescence
Procedure: Compounds described herein were used to screen for effects on quantitative protein abundance using a HiBit assay system (Promega). Quantitative protein abundance was determined by measuring the protein levels of HiBit-tagged protein targets expressed in cell culture via luminescence using the Nano-Glo HiBiT Lytic Detection System, which uses a split complementation assay format to reconstitute NanoBiT enzyme to generate a luminescent signal. A protein abundance assay was developed such that endogenous protein targets could be modified with the HiBiT peptide tag and their abundance could be assessed after compound treatment. Briefly, K562 cell lines containing a HiBiT-modification were treated with various compounds described herein (e.g., compounds of Formulas (I)). After treatment for 24 hours, the protein abundance of a specific target was determined by measuring luminescence.
Cells were maintained in IMDM with 10% FBS. Before the assay, cells were diluted with […] growth media (IMDM+[…] media) and were seeded in a 384-well plate at a density of 10000 cells/well (for each cell line listed in Table 8). Each compound was prepared as a 10-point 3-fold serial dilution in DMSO with the top dose at a final concentration of 10 μM in the well. Unmodified K562 cells were added at the previously specified density with DMSO to serve as an assay baseline and positive control (PC) and DMSO only with the respective modified cell lines was added to the negative control (NC) columns. Final DMSO concentration was kept at or below 0.25% o. Treated cell plates were placed in an incubator at 37° C. with […] for 24 hours. After 24 hours, 25 μL of Complete HiBit Lytic reagent was added to each well at room temperature (e.g. one plate requiring 10 mL Lytic Buffer, 100 μL LgBiT Protein, 200 μL Lytic Substrate), shaken for 5 minutes at 600 RPM, then left to sit for 10 minutes for signal to stabilize before reading on a Spark Cyto plate reader (Tecan) with a 500 ms measurement time.
To determine compound effects on protein abundance of each target in Table 9, the percent response for each respective cell line was calculated at each compound concentration as follows:
For the normalized response at each concentration, a four-parameter logistical regression was fit to the data and the response was interpolated at the […] to determine a concentration for protein abundance at 50% o (IC50) the untreated control.

HTT = assay: RT-qPCR splicing assay, HTT AJ/CJ mRNA; assay type: cell-based, human; settings: A673 or K562 cells; for IC50: decrease in canonical junction mRNA; for AC50: increase in alternative junction mRNA
Method in brief: (§1)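 Following 24 h compound exposure at 37 °C (11 points, 3-fold, highest 10 uM; DMSO ≤0.25%), A673 or K562 lysates underwent RT-qPCR for exon-inclusion (AJ) and canonical (CJ) junctions of HTT and MYB. Relative quantification used housekeeping-gene ΔCt and DMSO-normalized ΔΔCt, converted to percentage response.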

MYB = assay: RT-qPCR splicing assay, MYB AJ/CJ mRNA; assay type: cell-based; settings: Homo sapiens, A673 or K562 cells, 24 hours; for IC50: decrease in canonical junction mRNA; for AC50: increase in alternative junction mRNA
Method in brief: as §1

| Structure (SMILES) | IC50 [1] | IC50 (HTT; Homo sapiens, 24 h) | AC50 (HTT; Homo sapiens, 24 h) | IC50 (MYB) | AC50 (MYB) | IC50 (HTT; 24 hours) | AC50 (HTT; 24 hours) |
| --- | --- | --- | --- | --- | --- | --- | --- |
| c1cc2c(cc1-c1cn[nH]c1)COc1nc(O[C@@H]3C[C@H]4CC[C@@H](C3)N4)ccc1-2 [Compound 218] | < 0.1 µM | < 0.1 µM | < 0.1 µM | 0.1 to 1 µM | 0.1 to 1 µM |  |  |
| Cc1[nH]ncc1-c1ccc2c(c1)COc1nc(N(C)[C@@H]3C[C@H]4CC[C@@H](C3)N4)ccc1-2 [Compound 154] | 0.1 to 1 µM | 0.1 to 1 µM | 0.1 to 1 µM | 0.1 to 1 µM | < 0.1 µM |  |  |
| COc1cc(-c2ccc3c(c2)COc2nc(N4CCN[C@@H](C)C4)ccc2-3)cnn1 [Compound 287] | 0.1 to 1 µM | 0.1 to 1 µM | 0.1 to 1 µM | 1 to 10 µM | 1 to 10 µM |  |  |
| CN(c1ccc2c(c1)COc1cc(-n3cccn3)ccc1-2)C1CC(C)(C)NC(C)(C)C1 [Compound 117] | 1 to 10 µM | > 10 µM | > 10 µM | 1 to 10 µM | > 10 µM |  |  |
| COc1cc(-c2ccc3c(c2)COc2nc(N4CCC(N(C)C)C4)ccc2-3)cnn1 (centres unmarked) [Compound 306, 1-[8-(6-methoxypyridazin-4-yl)-6H-isochromeno[3,4-b]pyridin-3-yl]-N,N-dimethylpyrrolidin-3-amine] | 1 to 10 µM | 0.1 to 1 µM | 1 to 10 µM | 1 to 10 µM | 1 to 10 µM |  |  |
| CC1(C)CC(Nc2ccc3c(n2)COc2cc(-n4cccn4)ccc2-3)CC(C)(C)N1 [Compound 134] | 1 to 10 µM | 1 to 10 µM | 1 to 10 µM | 1 to 10 µM | > 10 µM |  |  |
| CC1(C)CC(Nc2ccc3c(n2)OCc2cc(-n4cccn4)ccc2-3)CC(C)(C)N1 [Compound 165] | 0.1 to 1 µM | 0.1 to 1 µM | 0.1 to 1 µM | 1 to 10 µM | 0.1 to 1 µM |  |  |
| CN(c1ccc2c(n1)OCc1cc(-n3ccnn3)ccc1-2)[C@@H]1C[C@H]2CC[C@@H](C1)N2 [Compound 152] | 0.1 to 1 µM | 0.1 to 1 µM | < 0.1 µM | 0.1 to 1 µM | 0.1 to 1 µM |  |  |
| c1cnn(-c2ccc3c(c2)COc2nc(NC4CNC4)ccc2-3)c1 [Compound 166] | 1 to 10 µM | > 10 µM | > 10 µM | > 10 µM | > 10 µM |  |  |
| COc1cc(-c2ccc3c(c2)COc2nc(N4CCC(NC5(C)CCC5)C4)ccc2-3)cnn1 (centres unmarked) [Compound 285, 1-[8-(6-methoxypyridazin-4-yl)-6H-isochromeno[3,4-b]pyridin-3-yl]-N-(1-methylcyclobutyl)pyrrolidin-3-amine] | 0.1 to 1 µM | < 0.1 µM | 0.1 to 1 µM | 0.1 to 1 µM | 0.1 to 1 µM |  |  |
| CN(c1ccc2c(n1)OCc1cc(-n3cccn3)ccc1-2)[C@@H]1C[C@H]2CC[C@@H](C1)N2 [Compound 149] | 0.1 to 1 µM | 0.1 to 1 µM | < 0.1 µM | 0.1 to 1 µM | 0.1 to 1 µM |  |  |
| CN(c1ccc2c(n1)CCOc1cc(-n3cccn3)ccc1-2)C1CC(C)(C)NC(C)(C)C1 [Compound 129] | > 10 µM | > 10 µM | > 10 µM | > 10 µM | > 10 µM |  |  |
| COc1cc(-c2ccc3c(c2)COc2nc(O[C@@H]4C[C@H]5COC[C@@H](C4)N5)ccc2-3)cnn1 [Compound 290, (exo)-7-{[8-(6-methoxypyridazin-4-yl)-6H-isochromeno[3,4-b]pyridin-3-yl]oxy}-3-oxa-9-azabicyclo[3.3.1]nonane] | 0.1 to 1 µM | < 0.1 µM | 0.1 to 1 µM | 0.1 to 1 µM | 0.1 to 1 µM |  |  |
| CN(c1ccc2c(n1)COc1cc(-n3cccn3)ccc1-2)C1CC(C)(C)NC(C)(C)C1 [Compound 125] | 0.1 to 1 µM | > 10 µM | > 10 µM | > 10 µM | > 10 µM |  |  |
| Cc1ncc(-c2ccc3c(c2)COc2nc(N(C)[C@@H]4C[C@H]5CC[C@@H](C4)N5)ccc2-3)o1 [Compound 155] | 0.1 to 1 µM | < 0.1 µM | < 0.1 µM | 0.1 to 1 µM | 0.1 to 1 µM |  |  |
| CN(c1ccc2c(c1)OCc1cc(-c3cn[nH]c3)ccc1-2)[C@@H]1C[C@H]2CC[C@@H](C1)N2 [Compound 104] | 1 to 10 µM | > 10 µM | > 10 µM | > 10 µM | > 10 µM |  |  |

| Structure (SMILES) | IC50 [1] | IC50 (HTT; Homo sapiens, 24 h) | AC50 (HTT; Homo sapiens, 24 h) | IC50 (MYB) | AC50 (MYB) | IC50 (HTT; 24 hours) | AC50 (HTT; 24 hours) |
| --- | --- | --- | --- | --- | --- | --- | --- |
| CN(c1ccc2c(c1)CCOc1cc(-n3cccn3)ccc1-2)[C@@H]1C[C@H]2CC[C@@H](C1)N2 [Compound 113] | 1 to 10 µM | > 10 µM | > 10 µM | > 10 µM | > 10 µM |  |  |
| CN(c1ccc2c(n1)OCc1cc(-n3cccn3)ccc1-2)C1CC(C)(C)NC(C)(C)C1 [Compound 148] | 1 to 10 µM | 1 to 10 µM | 1 to 10 µM | 1 to 10 µM | 1 to 10 µM |  |  |
| c1cc2c(cc1-c1cn[nH]c1)COc1nc(N3CCC34CCNC4)ccc1-2 (centres unmarked) [Compound 207] | 1 to 10 µM |  |  | 1 to 10 µM | 0.1 to 1 µM |  |  |
| CN(c1ccc2c(n1)OCc1cc(-c3cn[nH]c3)ccc1-2)C1CCNCC1 [Compound 116] | 1 to 10 µM | 0.1 to 1 µM | 1 to 10 µM | 1 to 10 µM | 1 to 10 µM |  |  |
| CN(c1ccc2c(n1)OCc1cc(-c3cnn(C)c(=O)c3)ccc1-2)[C@@H]1C[C@H]2CC[C@@H](C1)N2 [Compound 160] | 0.1 to 1 µM | < 0.1 µM | < 0.1 µM | 0.1 to 1 µM | < 0.1 µM |  |  |
| COc1cc(-c2ccc3c(c2)COc2nc(N4CCC(N5CCCC5)C4)ccc2-3)cnn1 (centres unmarked) [Compound 305] | 1 to 10 µM | 0.1 to 1 µM | 0.1 to 1 µM | 1 to 10 µM | 1 to 10 µM |  |  |
| c1cc2c(cc1-c1cn[nH]c1)COc1nc(N[C@@H]3C[C@H]4CC[C@@H](C3)N4)cnc1-2 [Compound 143] | 1 to 10 µM | 0.1 to 1 µM | 0.1 to 1 µM | 0.1 to 1 µM | 1 to 10 µM |  |  |
| CN(c1ccc2c(n1)OCc1cc(-n3ccnc3)ccc1-2)[C@@H]1C[C@H]2CC[C@@H](C1)N2 [Compound 163] | < 0.1 µM | < 0.1 µM | < 0.1 µM | 0.1 to 1 µM | < 0.1 µM |  |  |
| CN(c1cnc2c(n1)OCc1cc(-c3cn[nH]c3)ccc1-2)C1CC(C)(C)NC(C)(C)C1 [Compound 142] | 1 to 10 µM |  |  | 0.1 to 1 µM | 1 to 10 µM | 0.1 to 1 µM | 0.1 to 1 µM |
| CN(c1ccc2c(n1)OCc1cc(-c3ccc(=O)[nH]c3)ccc1-2)[C@@H]1C[C@H]2CC[C@@H](C1)N2 [Compound 157] | 1 to 10 µM | 1 to 10 µM | 1 to 10 µM | 1 to 10 µM | 1 to 10 µM |  |  |
| C[C@@H]1C[C@H](N(C)c2ccc3c(c2)OCc2cc(-c4cn[nH]c4)ccc2-3)CCN1 [Compound 101] | 1 to 10 µM |  | > 10 µM | > 10 µM | 1 to 10 µM |  |  |
| Cc1ncc(-c2ccc3c(c2)COc2nc(O[C@@H]4C[C@H]5C[C@@H](C4)N5)ccc2-3)s1 [Compound 208] | 0.1 to 1 µM |  |  | 0.1 to 1 µM | 0.1 to 1 µM |  |  |
| CN(c1ccc2c(n1)OCc1cc(-c3ccc(=O)n(C)c3)ccc1-2)[C@@H]1C[C@H]2CC[C@@H](C1)N2 [Compound 158] | 0.1 to 1 µM | 0.1 to 1 µM | 0.1 to 1 µM | 0.1 to 1 µM | 1 to 10 µM |  |  |
| CN(c1ccc2c(n1)OCc1cc(-c3cc(=O)n(C)cn3)ccc1-2)[C@@H]1C[C@H]2CC[C@@H](C1)N2 [Compound 162] | 0.1 to 1 µM | < 0.1 µM | < 0.1 µM | 0.1 to 1 µM | < 0.1 µM |  |  |
| CN(c1ccc2c(n1)COc1cc(-n3cccn3)ccc1-2)[C@@H]1C[C@H]2CC[C@@H](C1)N2 [Compound 124] | 1 to 10 µM |  |  | 1 to 10 µM | > 10 µM | 1 to 10 µM | 1 to 10 µM |
| CN(c1ccc2c(n1)OCc1cc(-c3cnc(=O)[nH]c3)ccc1-2)[C@@H]1C[C@H]2CC[C@@H](C1)N2 [Compound 161] | > 10 µM | > 10 µM | > 10 µM | > 10 µM | > 10 µM |  |  |
